Assay results published in patent EP1285920A1, “C10 Ester sustituted taxanes as antitumor agents” (Florida State University Research Foundation, Inc., priority 2001, dated 2003).
Read-outs that look alike come from different tables or passages of the source.

Tests used:
HCT116 = assay: In Vitro cytotoxicity measured by the cell colony formation assay; assay type: cell-based, human; settings: Homo sapiens, HCT-116; read-out: IN VITRO ID 50 HCT116
Outline: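 Four hundred cells per dish in McCoy's 5a medium with 10% FBS were allowed to attach for 5 h at 37 °C. They were then exposed to compound for 72 h at 37 °C, added as a 10× stock made fresh in medium. After HBSS rinsing and refeeding, colonies were counted after 7 days.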

[1] = test system: Panc-1 pancreatic carcinoma; assay: In vivo evaluation against Panc-1 human pancreatic carcinoma (Example 17); settings: for MDS: i.v. qd x 1 (compounds estimated MTD; Taxol 36 mg/kg split), days until tumor 1.5 g, ended Day 60; for MDS (n): mean days of survival until neoplasm reached 1.5 g, terminated Day 60; for Mean Score: tumor scoring system
Experimental: The dosing volume was 0.3 ml per 20 g mouse.
Female NCr-nude mice were implanted subcutaneously with 1 mm^3 Panc-1 pancreatic carcinoma fragments in the flank and sorted into treatment groups of six mice each. […] Dosing was initiated on Day 1. The antitumor compounds were given i.v. at an estimated maximum tolerated dose (MTD) appropriate for each agent on a qd x 1 schedule (single administration of compound). […] The vehicle was administered i.v. to control mice in Group 1 on the qd x 1 schedule. The study was terminated on Day 60.
The mean days of survival is the number of days after which a neoplasm reached a size of 1.5 g and the animal was euthanized. A complete response is obtained if the tumor shrinks to a size smaller than its size on Day 1 of the study.

VM46 colon carcinoma = test system: VM46 colon carcinoma
Experimental: Dosing was initiated on Day 1. […] Taxotere was given i.v. at a dose of 70 mg/kg on a qd x 1 schedule.

A375 melanoma = settings: for MDS (n): mean days of survival until neoplasm reached 2.0 g, terminated Day 60; for Mean Score: tumor scoring system
Experimental: Dosing was initiated on Day 1. […] Taxotere was given i.v. on a qd x 1 schedule at a dose of 70 mg/kg. […] The study was terminated on Day 60. Treatment groups are detailed in Table 9.

DU145 prostate carcinoma = settings: for Mean Score / Stable Disease / Complete Response / Partial Response / Survivors: i.v. qd x 1 at estimated MTD (Taxol 24 mg/kg split); for Mean Score / Stable Disease / Toxic Deaths / Complete Response / Partial Response / Survivors: Day 91; for Stable Disease / Toxic Deaths / Complete Response / Partial Response / Survivors: number of 5 mice; for Stable Disease: tumor did not reach 1.5 g by end of study
From the text: Dosing was initiated on Day 1. […] Treatment groups are detailed in Table 5.

SKMES lung carcinoma = assay: In vivo evaluation of oral administration against SKMES human lung carcinoma xenograft (Example 21)
Experimental: Female Nu/Nu mice (6-8 weeks of age; implanted with 1 mm^3 SKMES lung carcinoma fragments in the flank) were sorted into treatment groups of six mice each. […] Treatments were administered as a single oral bolus on Day 1, and the study was terminated on Day 60.
(§1) A complete response is obtained if the tumor is not palpable at the end of the study.
The total response rate is defined as the percentage of evaluable animals (excluding deaths due to procedure or toxicity) in a group that experience complete or partial responses at the termination of the study.

SK-MES carcinoma = assay: In vivo evaluation against SK-MES human lung carcinoma xenograft (i.v., Example 11)
Experimental: Antitumor compounds were formulated for an i.v. dosing regime prepared in the following vehicle: 10% ethanol, 10% Cremophor and 80% isotonic saline.
Vehicle control animals were dosed twice intravenously with half the total volume being given separated by one hour. The study was terminated on Day 60.
as §1
A tumor scoring system was designed to provide a more quantitative ranking of efficacy (therapeutic potential) among the antitumor agents evaluated against the different human solid tumor xenografts. Each mouse in a study was given a score of from 1 to 10 at the end of the study. The scores can be summarized as follows:
The individual score for each mouse was averaged into a mean score for each treatment group. […]

A2780 ovarian carcinoma = test system: A2780 ovarian carcinoma
Experimental: Dosing was initiated on Day 1. […] Taxotere was given i.v. on a qd x 1 schedule at a dose of 70 mg/kg. […] The study was terminated on Day 60. Treatment groups are detailed in Table 7.

[2] = Panc-1 (Example 17), i.v. qd x 1, six mice per group
[3] = i.v. qd x 1, mg/kg: Taxol 36, 0499 77, 0503 72.6, 0670 123.1, 0706 107.6, 0838 72.6, 0854 76.9, 6 mice/group
[4] = number of mice, i.v. qd x 1, mg/kg: Taxol 36, 0499 77, 0503 72.6, 0670 123.1, 0706 107.6, 0838 72.6, 0854 76.9, 6 mice/group
[5] = number of mice, i.v. qd x 1, mg/kg: Taxol 36, 0499 77, 0503 72.6, 0670 123.1, 0706 107.6, 0838 72.6, 0854 76.9, 6 mice/group, Day 60
[6] = VM46, i.v. qd x 1, six mice per group
[7] = number of mice, i.v. qd x 1, mg/kg: Taxol 24, 0499 77, 0503 72.6, 0670 123.1, 0706 107.6, 0838 72.6, 0854 46.6, 0983 67.4, Taxotere 70, 6 mice/group
[8] = number of mice, i.v. qd x 1, mg/kg: Taxol 24, 0499 77, 0503 72.6, 0670 123.1, 0706 107.6, 0838 72.6, 0854 46.6, 0983 67.4, Taxotere 70, 6 mice/group, Day 64
[9] = A375, i.v. qd x 1, six mice per group
[10] = i.v. qd x 1 at estimated MTD (Taxol 24 mg/kg, Taxotere 70 mg/kg), 6 mice/group (Taxotere 7)
[11] = number of mice, i.v. qd x 1 at estimated MTD (Taxol 24 mg/kg, Taxotere 70 mg/kg), 6 mice/group (Taxotere 7)
[12] = number of mice, i.v. qd x 1 at estimated MTD (Taxol 24 mg/kg, Taxotere 70 mg/kg), 6 mice/group (Taxotere 7), Day 60
[13] = i.v. qd x 1 at estimated MTD (Taxol 24 mg/kg as two split doses)
[14] = number of mice, single oral bolus Day 1, mg/kg: Taxol 40, 0687 228, 0503 73, 6 mice/group, Day 60
[15] = number of mice, i.v. qd x 1 at estimated MTD (Taxol 24 mg/kg, Taxotere 70 mg/kg, 0983 72.6 mg/kg), 5 mice/group (Taxotere 6), Day 60

## CCC(=O)O[C@H]1C(=O)[C@@]2(C)[C@H]([C@H](OC(=O)c3ccccc3)[C@]3(O)C[C@H](OC(=O)[C@H](O)[C@H](C=C(C)C)NC(=O)OC(C)(C)C)C(C)=C1C3(C)C)[C@]1(OC(C)=O)CO[C@@H]1C[C@@H]2O [Compound 0499]
HCT116
  IC50: < 1 nM
[1]; Panc-1 (Example 17)
  MDS: 47 to 56 days
[1]; [2]
  Partial Response: 1
  Stable Disease: one
  complete responses: 2
[1]; [3]
  MDS (n): 56.1 ± 1.0 (2) days
  Mean Score: 7.4 ± 1.4
[1]; [4]
  Toxic Deaths: 0
[1]; [5]
  Complete Response: 2
  Partial Response: 1
  Stable Disease: 1
  Survivors: 4
VM46 colon carcinoma; VM46, i.v. qd x 1
  tolerability: well-tolerated
VM46 colon carcinoma; [6]
  Toxic Deaths: no toxic deaths
VM46 colon carcinoma; iv
  Mean Score: 2 ± 0.3
VM46 colon carcinoma; iv, 1536 h
  MDS (n): 41.9 ± 4.2 (5) days
VM46 colon carcinoma; [7]
  Toxic Deaths: 0
VM46 colon carcinoma; [8]
  Complete Response: 0
  Partial Response: 0
  Stable Disease: 1
  Survivors: 1
A375 melanoma; [9]
  Stable Disease: one
A375 melanoma; [10]
  MDS (n): 30.5 ± 3.5 (3) days
  Mean Score: 2.3 ± 0.9
A375 melanoma; [11]
  Toxic Deaths: 2
A375 melanoma; [12]
  Complete Response: 0
  Partial Response: 0
  Stable Disease: 1
  Survivors: 1
DU145 prostate carcinoma; 5 mice/group
  Mean Score: 4.4 ± 1.4
DU145 prostate carcinoma; mean days of survival until tumor reached 1.5 g, i.v. qd x 1 at estimated MTD (Taxol 24 mg/kg as two split doses), 5 mice/group, study ended Day 91
  MDS (n): 67.2 ± 8.3 (3) days
DU145 prostate carcinoma
  Stable Disease: 1
  Complete Response: 1
  Partial Response: 0
  Survivors: 2
DU145 prostate carcinoma; [13]
  Toxic Deaths: 0

## CCC(=O)O[C@H]1C(=O)[C@@]2(C)[C@H]([C@H](OC(=O)c3ccccc3)[C@]3(O)C[C@H](OC(=O)[C@H](O)[C@@H](NC(=O)OC(C)(C)C)c4ccccn4)C(C)=C1C3(C)C)[C@]1(OC(C)=O)CO[C@@H]1C[C@@H]2O [Compound 0503]
SKMES lung carcinoma; SKMES, 0503 73 mg/kg single oral bolus, six mice
  complete responses: three
SKMES lung carcinoma; complete or partial responses among evaluable animals, single oral bolus Day 1, mg/kg: Taxol 40, 0687 228, 0503 73
  % Total Response: 50.0%
SKMES lung carcinoma; mean days of survival until neoplasm reached 2.0 g, single oral bolus Day 1, mg/kg: Taxol 40, 0687 228, 0503 73, 6 mice/group, terminated Day 60
  MDS (n): 29.8 ± 3.6 (3) days
SKMES lung carcinoma; number of mice, single oral bolus Day 1, mg/kg: Taxol 40, 0687 228, 0503 73, 6 mice/group
  Toxic Deaths: 0
SKMES lung carcinoma; [14]
  Complete Response: 3
  Partial Response: 0
  Stable Disease: 0
  Survivors: 3
HCT116
  IC50: < 1 nM
[1]; Panc-1 (Example 17)
  MDS: 47 to 56 days
[1]; [2]
  Stable Disease: three
[1]; [3]
  MDS (n): 52.5 ± 2.1 (3) days
  Mean Score: 3.6 ± 0.4
[1]; [4]
  Toxic Deaths: 0
[1]; [5]
  Complete Response: 0
  Partial Response: 0
  Stable Disease: 3
  Survivors: 3
VM46 colon carcinoma; VM46, i.v. qd x 1
  tolerability: well-tolerated
VM46 colon carcinoma; VM46, i.v. qd x 1 (compounds estimated MTD; Taxol 24 mg/kg split), six mice per group, ended Day 64
  partial responses: four
VM46 colon carcinoma; [6]
  Stable Disease: two
  Toxic Deaths: no toxic deaths
VM46 colon carcinoma; VM46, i.v. qd x 1 at estimated MTD
  response rate: 66.7%
VM46 colon carcinoma; [7]
  Toxic Deaths: 0
VM46 colon carcinoma; [8]
  Complete Response: 0
  Partial Response: 4
  Stable Disease: 1
  Survivors: 5
VM46 colon carcinoma; tumor scoring system, i.v. qd x 1, mg/kg: Taxol 24, 0499 77, 0503 72.6, 0670 123.1, 0706 107.6, 0838 72.6, 0854 46.6, 0983 67.4, Taxotere 70, 6 mice/group
  Mean Score: 7.3 ± 1.2
SK-MES carcinoma; SK-MES, 0503 72.1 mg/kg i.v.
  antitumor activity: highly active
SK-MES carcinoma; SK-MES, i.v. MTD in two half doses one hour apart, qd x 1, Taxol 36 mg/kg, 0503 72.1 mg/kg, days until tumor 1.5 g, ended Day 60
  MDS (n): 46.0 ± 0(2) days
SK-MES carcinoma; SK-MES, i.v. split dose qd x 1, six mice per group
  Toxic Deaths: 0
SK-MES carcinoma; SK-MES, i.v. split dose qd x 1, six mice per group, Day 60
  Survivors: 4
SK-MES carcinoma; SK-MES, i.v. split dose qd x 1, tumor below 1.5 g at termination
  Stable Disease: 1
SK-MES carcinoma; SK-MES, i.v. split dose qd x 1, tumor smaller than on Day 1
  Partial Response: 0
SK-MES carcinoma; SK-MES, tumor score 1 to 10 per mouse, group mean
  Mean Score: 6.5 ± 1.6
SK-MES carcinoma; mouse, in vivo, iv, 72.1 mg/kg
  tolerability: well tolerated
A375 melanoma; A375, i.v. qd x 1
  survival extension compared to Group 1 controls: 95%
A375 melanoma; [9]
  Complete Response: 1
A375 melanoma; [10]
  MDS (n): 28.1 ± 5.8 (3) days
  Mean Score: 2.8 ± 1.5
A375 melanoma; [11]
  Toxic Deaths: 2
A375 melanoma; [12]
  Complete Response: 1
  Partial Response: 0
  Stable Disease: 0
  Survivors: 1
A2780 ovarian carcinoma; A2780, i.v. qd x 1
  antitumor activity: did not cause any complete responses, partial responses, or cases of stable disease
A2780 ovarian carcinoma; mean days of survival until neoplasm reached 2.0 g, i.v. qd x 1 at estimated MTD (Taxol 24 mg/kg, Taxotere 70 mg/kg, 0983 72.6 mg/kg), 5 mice/group (Taxotere 6), terminated Day 60
  MDS (n): 32.4 ± 4.7 (5) days
A2780 ovarian carcinoma; number of mice, i.v. qd x 1 at estimated MTD (Taxol 24 mg/kg, Taxotere 70 mg/kg, 0983 72.6 mg/kg), 5 mice/group (Taxotere 6)
  Toxic Deaths: 0
A2780 ovarian carcinoma; [15]
  Complete Response: 0
  Partial Respons: 0
  Stable Disease: 0
  Survivors: 0
A2780 ovarian carcinoma; tumor scoring system, i.v. qd x 1 at estimated MTD (Taxol 24 mg/kg, Taxotere 70 mg/kg, 0983 72.6 mg/kg), 5 mice/group (Taxotere 6)
  Mean Score: 2.8 ± 0.2
DU145 prostate carcinoma; DU145, i.v. qd x 1 at estimated MTD, five mice per group
  total response rate: at least 50%
DU145 prostate carcinoma; 5 mice/group
  Mean Score: 6.2 ± 1.9
DU145 prostate carcinoma
  Stable Disease: 2
  Complete Response: 2
  Partial Response: 0
  Survivors: 4
DU145 prostate carcinoma; [13]
  Toxic Deaths: 1
